Publication PMC4481117 (Molecular Pain, 2015)

Experiments:
[1] = test system: μ- and δ-opioid receptors; design: method as in PMID 8624732; conditions: cited from earlier work
wild-type HEK293 cells [2] = experiment: Transwell migration of wild-type HEK293 cells to Dyn A; format: cell-based, Human; conditions: 16 h at 37 °C
Experimental: Fig. 6 Migration of Mac-1-expressing cells to Dyn A in a Transwell system. a, Mac-1-expressing HEK 293 cells (100 μl at 3 × 10^6 cell/ml) were added to the upper wells of the transwell chamber and their ability to migrate to different concentrations of Dyn A placed in the lower chamber was analyzed. After 16 hours at 37 °C, migrated cells were fixed, stained, and counted. Data are presented as numbers of migrated cells per field ± S.E. for five random fields per well. The figure is representative of 5 experiments. b, Mac-1-expressing or wild-type HEK 293 cells were added to the upper wells of the transwell chamber and their ability to migrate to 10 μM Dyn A placed in the lower chamber was analyzed as in A. Some Mac-1-HEK293 cells were pretreated with 20 μg/ml of mAbs 44a (anti-αM), IB4 (anti-β2) or OKM1 (non function-blocking anti-αM) or medium alone before addition to the upper wells. ***, medium alone. […] The number of migrated cells was determined as in A. Data are presented as number of migrated cells per field ± S.E. for five random fields per well. […]
Migration assays with wild-type and Mac-1-expressing HEK293 cells and purified macrophages using Transwell inserts (5 μm pore size) were performed as previously described. […] The photographs were taken using a 20x objective and cells in […] and cells were counted. […]

[3] = test system: αMI-domain (active and nonactive forms); experiment: Solid-phase binding of active and nonactive GST-αMI-domains; conditions: immobilized peptide, 1.5 h at 22 °C, anti-GST detection, 405 nm; means of triplicates, representative of n = 4
Experimental: Fig. 2 Binding of the active and nonactive αMI-domain conformers to dynorphin. a, the 3D structure of active (PDB ID 1ido) and nonactive (PDB ID 1jlm) αMI-domains are shown as ribbon diagrams. The wells of microtiter plates were coated with different concentrations of dynorphin A (b) and the D100 fragment of fibrinogen (c). The active (●) and nonactive (○) recombinant αMI-domains containing GST fusion parts were added to the wells and incubated for 1.5 h at 22 °C. Bound αMI-domains were detected with an anti-GST mAb followed by an AP-conjugated secondary antibody. Data are the means of triplicate determinations, and error bars represent S.E. Representative experiments in b (n = 4) and c (n = 4) are shown. For multiple comparisons, individual concentrations were tested using t-test with p-value of 0.05 corrected by Bonferroni method and accepting values of 0.007 as significant (**).
Dyn A ([…]), Dyn B ([…]), and control peptide ([…]) were purchased from AnaSpec, Inc (San Jose, CA). […]
Microtiter plates were coated with different concentrations of the fibrinogen D100 fragment or Dyn A overnight at 4 °C and post-coated with 3 % BSA for 1 h. […] After washing, goat anti-mouse IgG conjugated to alkaline phosphatase was added for 1 h and the binding of the αMI-domains was detected by reaction with p-nitrophenyl phosphate measuring the absorbance at 405 nm. […]

wild-type HEK293 cells [4] = experiment: Translocation of Dyn A into wild-type HEK293 cells (immunolabeling); format: cell-based, Human; conditions: 20 μM Dyn A, 40 min at 37 °C
Experimental: Fig. 5 Translocation of Dyn A into cells. Mac-1-expressing (a) and wild-type HEK293 (b) cells were incubated with 20 μM and 100 μM of Dyn A for 40 min at 37 °C, fixed, permeabilized and incubated with anti-dynorphin antibodies followed by Alexa Fluor 488-conjugated secondary goat anti-rabbit antibodies. No labeling was detected in the absence of primary antibody. c, Enlarged images of Dyn A-accumulated Mac-1- and wild-type HEK cells shown in a and b. d, Quantification of fluorescent cells shown in a and b
Mac-1-HEK 293 and wild-type HEK 293 cells were incubated for 10 min with different concentrations (0–100 μM) of Dyn A and allowed to adhere to glass coverslips coated with poly-Lysine for 30 min. Adherent cells were fixed in 2 % paraformaldehyde solution, permeabilized with 0.1 % Tween-20, and blocked with 10 % normal goat serum plus 1 % BSA. The coverslips were incubated with 5 μg/ml polyclonal anti-Dyn A antibody followed by an secondary goat anti-rabbit antibody conjugated to Alexa Fluor 488 (1:1000). Images were taken using a Leica DM 4000B microscope (Leica, Buffalo Grove, IL).

In the case of `CC[C@H](C)[C@H](NC(=O)[C@H](CCCNC(=N)N)NC(=O)[C@H](CCCNC(=N)N)NC(=O)[C@H](CC(C)C)NC(=O)[C@H](Cc1ccccc1)NC(=O)CNC(=O)CNC(=O)[C@@H](N)Cc1ccc(O)cc1)C(=O)N[C@@H](CCCNC(=N)N)C(=O)N1CCC[C@H]1C(=O)N[C@@H](CCCCN)C(=O)N[C@@H](CC(C)C)C(=O)N[C@@H](CCCCN)C(=O)N[C@@H](Cc1c[nH]c2ccccc12)C(=O)N[C@@H](CC(=O)O)C(=O)N[C@@H](CC(N)=O)C(=O)N[C@@H](CCC(N)=O)C(=O)O` [Dyn A], the “μ- and δ-opioid receptor binding” value [1] is listed as “can bind to μ- and δ-opioid receptors”, the “Migration of wild-type HEK293 cells (in words)” value (wild-type HEK293 cells [2]) is listed as “did not migrate” and the “Difference in binding of active and nonactive αMI-domains” value [3] is listed as “No significant difference in binding of active and nonactive αMI-domains”. For the same compound, the “Localization of Dyn A in wild-type HEK293 cells” value (wild-type HEK293 cells [4]) was “entering inside wild-type HEK293 cells”.
